Reference: US9902741
Like-named read-outs stand apart in the source and are kept apart here.

Details: 14-membered ring, Cs2CO3, DMF, 85.0 °C
[1] = from O=C(NC[C@H](O)CCl)c1cnn2ccc(N3CC(F)(F)CC3c3cc(F)ccc3O)nc12, ether bond, 20.0 mM

In the case of `O=C1NC[C@H](O)Cn2cc(F)cc(c2=O)[C@H]2CCCN2c2ccn3ncc1c3n2`, the ring closure, isolated yield (from N—((S)-3-chloro-2-hydroxypropyl)-5-4R)-2-(5-fluoro-2-oxo-1,2-dihydropyridin-3-yl)pyrrolidin-1-yl)pyrazolo[1,5-a]pyrimidine-3-carboxamide hydrochloride, other bond, […]) is reported as 12%.

With `O=C1NC[C@H](O)COc2ccc(F)cc2C2CC(F)(F)CN2c2ccn3ncc1c3n2` (single isomer, unassigned; diastereomer 1) the ring closure, isolated yield [1] was 20%.

For `O=C1NC[C@H](O)COc2ccc(F)cc2C2CC(F)(F)CN2c2ccn3ncc1c3n2` (single isomer, unassigned; diastereomer 2), the ring closure, isolated yield [1] was 24%.
